Source: US9056844B2, “4-substituted-3-benzyloxy-bicyclo[3.1.0]hexane compounds as mGluR 2/3 antagonists” (Eli Lilly and Company, priority 2010, dated 2015)

System: male NIH-Swiss mice
Assay: Forced-swim test in mice (mFST)
Type: in vivo, mouse
Details: for ED60: Mus musculus, po, immobility in last 4 min of 6 min; for Maximal Decrease (1 − compound/control) * 100%: p.o., immobility time
Description: Forced-Swim Test in Mice (mFST)
mFST is an established in vivo assay for antidepressant activity (Li et al. J Pharmacol Exp Ther. 319(1):254-9, 2006.). […] The mFST was used to evaluate potential antidepressant-like activity of novel mGlu2/3 antagonists essentially as described in previously published methods (see for example, Li et al. J Pharmacol Exp Ther. 319(1):254-9, 2006.). Briefly, male NIH-Swiss mice (Harlan Sprague-Dawley, Indianapolis, Ind.) weighing between 25-30 g are used. Group housed animals are removed from the vivarium to the testing area in their own cages and allowed to adapt to the new environment for at least 1 hour before testing. Compounds where R^1 and R^2 are both hydrogen are dissolved in water with minimal NaOH added for dissolution and are administered i.p. Compounds where R^1 and/or R^2 are other than hydrogen are prepared on the day of use in 2.0-2.5% N-methyl-pyrrolidinone and then suspended in 1% HEC, 0.25% Tween 80, and 0.05% Dow antifoam, and administered orally. Mice are placed in a cylinder (diameter: 10 cm; height: 25 cm) filled with 6 cm of water (22-25° C.) for 6 min. The duration of immobility during the last 4 min. of the 6 min. period of the test was scored. A mouse is recorded as immobile when floating motionless or making only those movements necessary to keep its head above water.

Row | Structure (SMILES) | ED60 [mg/kg] | Maximal Decrease (1 − compound/control) * 100% [%]
1 | CCOC(=O)OCOC(=O)[C@H]1[C@@H]2[C@H](O)[C@@H](OCc3ccc(Cl)c(Cl)c3)[C@@](N)(C(=O)OCOC(=O)OCC)[C@H]12.Cl [Example 11, Bis{[(ethoxycarbonyl)oxy]methyl} (1S,2R,3S,4S,5R,6R)-2-amino-3-[(3,4-dichlorobenzyl)oxy]-4-hydroxybicyclo[3.1.0]hexane-2,6-dicarboxylate hydrochloride] | 51.5 | 32.9
2 | CC(C)C(=O)OCOC(=O)[C@H]1[C@@H]2[C@H](O)[C@@H](OCc3ccc(Cl)c(Cl)c3)[C@@](N)(C(=O)OCOC(=O)C(C)C)[C@H]12.Cl [Example 12, Bis{[(2-methylpropanoyl)oxy]methyl} (1S,2R,3S,4S,5R,6R)-2-amino-3-[(3,4-dichlorobenzyl)oxy]-4-hydroxybicyclo[3.1.0]hexane-2,6-dicarboxylate hydrochloride] | > 28 | 7
3 | Cl.N[C@]1(C(=O)OCOC(=O)C2CC2)[C@@H]2[C@@H](C(=O)OCOC(=O)C3CC3)[C@@H]2[C@H](O)[C@H]1OCc1ccc(Cl)c(Cl)c1 [Example 13, Bis{[(cyclopropylcarbonyl)oxy]methyl} (1S,2R,3S,4S,5R,6R)-2-amino-3-[(3,4-dichlorobenzyl)oxy]-4-hydroxybicyclo[3.1.0]hexane-2,6-dicarboxylate hydrochloride] | 11.3 | 62.8
